# Results published in patent publication US5516889A, “Synthetic thrombin receptor peptides” (University Technologies International, Inc., priority 1995, dated 1996).
# Where two headings read alike, the source gives them in different places. Residues, ends and D or L forms follow the SMILES beside them. *: point of attachment. Propionyl = CCC(=O)*
# Columns and labels:
# [1] = target: T1, thrombin receptor (guinea pig gastric longitudinal muscle strips) (Cavia porcellus, UniProt A0A286XH07); conditions: for Effect of inhibitor on contractile actions of P5--NH2 and Pr-P4: GLM
# T1 sequence (A0A286XH07 24-426): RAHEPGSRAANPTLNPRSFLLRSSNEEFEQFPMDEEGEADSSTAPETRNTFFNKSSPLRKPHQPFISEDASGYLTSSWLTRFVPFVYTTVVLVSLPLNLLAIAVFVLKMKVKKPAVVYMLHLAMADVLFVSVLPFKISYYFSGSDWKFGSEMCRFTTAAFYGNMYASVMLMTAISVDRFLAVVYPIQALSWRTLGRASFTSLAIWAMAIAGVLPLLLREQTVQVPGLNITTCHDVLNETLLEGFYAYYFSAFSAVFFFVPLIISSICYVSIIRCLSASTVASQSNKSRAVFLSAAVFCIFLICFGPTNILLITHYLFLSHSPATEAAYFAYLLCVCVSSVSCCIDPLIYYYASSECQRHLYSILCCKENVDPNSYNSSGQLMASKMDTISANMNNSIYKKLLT
# Description: (§1) The guinea pig gastric longitudinal muscle (GLM) strips and the rat thoracic aorta (RA) ring preparations were isolated as previously described 14, 15. In brief, gastric LM strips (3×10 mm), obtained from male albino Hartley strain guinea pigs were equilibrated for about 1.5 h at 37° (in an aerated (95% O2 /5% CO2) Krebs-Henseleit buffer (3 mL) of the following composition (in mM): NaCl, 118; KCl, 4.7; CaCl2, 2.5; MgCl2, 1.2; NaHCO3, 25; KH2 PO4, 1.2; and glucose, 10. The pH was maintained at 7.4. Rat gastric LM strips (3×10 mm) were obtained, as for the GLM strips, from male albino Sprague Dawley animals (250-300 g). The stomach, opened along the greater curvature, was stripped free of all mucosal tissue under microscopic visualization and longitudinal tissue strips were cut exactly at right angles to the visible circular muscle bundles. Tissue strips were pre-equilibrated in the buffer described above. Each tissue was challenged twice each in succession at timed intervals with 50 nM carbachol (20 min intervals), 1 μM angiotensin-II (1 h intervals) and 95 μM (60 μg/mL) receptor pentapeptide (P5, SFLLR, SEQ ID NO: 2) (25 min intervals for GLM; 30-35 min for RLM); tissues were washed at 10 and 15 min after the additions of agonists. Contractions were monitored isometrically using Statham force-displacement transducers. Only tissues responding well to all three agonists were used further for the evaluation of the biological activities of P5 and other peptide agonists.
# [2] = target: T2, thrombin receptor (rat gastric longitudinal muscle strips) (Rattus norvegicus, UniProt P26824); assay: Rat gastric longitudinal muscle (RLM) strip contractile assay; type: cell-based
# T2 construct: Rat gastric LM strips (3×10 mm) were obtained; from tissue; host or cells: rat (Sprague Dawley) gastric longitudinal muscle strips
# T2 sequence (P26824 22-432): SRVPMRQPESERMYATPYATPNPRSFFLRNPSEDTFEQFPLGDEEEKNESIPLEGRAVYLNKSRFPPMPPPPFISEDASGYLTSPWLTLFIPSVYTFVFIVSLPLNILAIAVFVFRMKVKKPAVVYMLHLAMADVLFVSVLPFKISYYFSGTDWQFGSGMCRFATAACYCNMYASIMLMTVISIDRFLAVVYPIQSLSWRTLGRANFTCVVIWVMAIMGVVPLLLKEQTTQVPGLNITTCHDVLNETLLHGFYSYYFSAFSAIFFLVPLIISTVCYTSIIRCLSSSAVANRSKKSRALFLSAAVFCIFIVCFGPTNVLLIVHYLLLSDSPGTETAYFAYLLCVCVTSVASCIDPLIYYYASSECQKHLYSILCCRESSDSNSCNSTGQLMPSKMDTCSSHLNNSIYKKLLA
# Source text: We obtained an evaluation of the potencies of the various TRPs, relative to P5, by using the linear portions of the concentration-effect curves, so as to calculate for several response levels the average ratio of concentrations (REC) of an individual TRP, relative to concentration of P5 that caused the same contractile response (i.e. REC =ECTRP .div.ECPS). […] In the RA assay, a similar approach to the estimate of relative potencies (REC S) was used, even though all agonists, except for P5--OCH3, appeared to cause equivalent maximal relaxation (FIG. 2, lower).
# as §1, with “peptide agonists. For the GLM and RLM assays, concentration-effect curves for all peptides were constructed by expressing the response of each agonist as a percentage (% P595) relative to the contraction caused by 95 μM (60 μg/mL) P5 (0.9±0.1 g tension: mean ±S.E.M. for n=12 in the GLM; 1.6±0.9 g tension: mean ±S.E.M. for n=36 in the RLM).” for “peptide agonists.”
# Weighed peptide samples were routinely dissolved in 50 mM phosphate buffer, pH 7.4, to yield stock solutions, from which volumes of up to 0.2 mL were added directly to the organ bath; the concentrations of all stock solutions used were verified by quantitative amino acid analysis of aliquots. Pr-P4 and Pr-P4--NH2 were dissolved in 40 mM phosphate buffer, pH 7.4, containing 20% v/v absolute ethanol (i.e. 8 Vol of the above 50 mM phosphate buffer +2 Vol. ethanol). Control aliquots of the ethanol-containing phosphate buffer alone had no effect on either of the bioassay systems. Acetylcholine, carbachol, indomethacin, noradrenaline and angiotensin-II and thrombin (human, 3000 to 4000 U/mg; 1 U/mL.perspectiveto.10 nM) were from Sigma (St. Louis, Mo.); genistein (GS) was from ICN Biochemicals, Costa Mesa, Calif. Tyrphostin (TP) (RG 50864, also designated AG213) was obtained through the courtesy of Dr. R. R. Swillo, Rhone-Poulenc Rorer (Collegeville, Pa). […] Indomethacin was dissolved in ethanol, such that the final ethanol concentration in the organ bath was at or lower than 0.01% v/v; this concentration of ethanol alone had no effect on the bioassay systems.
# [3] = system: thrombin receptor (rat thoracic aorta rings, intact endothelium); conditions: for Agonist (relaxation) activity: precontracted with 0.1 μM noradrenaline
# Description: Thoracic RA rings (2 mm×3 mm), obtained from male albino Sprague Dawley rats, were equilibrated (about 1 h, 37° ) in the same organ bath buffer as was used for the LM tissue, and tension (baseline 1.0 g) was monitored isometrically using either Statham or Grass force-displacement transducers. The presence of an intact endothelium was ascertained by monitoring a relaxation response to acetylcholine (ACh, 1 μM) in a preparation that was submaximally (EC75) contracted by 0.1 μM noradrenaline (NA) in the presence of 0.1 mM ascorbic acid (to preserve the catecholamine). Only tissues yielding a relaxation concentration-response curve between 0.01 and 10 μM acetylcholine (maximal relaxation of 70 to 90%, relative to the tension developed by 0.1 μM NA) were used for the further evaluation of the receptor-derived peptides. The assay of TRP responsiveness was done (e.g. see FIG. 1) on tissues that were precontacted with 0.1 μM NA at 30 min time intervals. Tissues were washed approx. 5 min after the application of TRPs. […] For purposes of comparison, the same stock solutions of an individual peptide were evaluated, relative to P5, in both the RA and LM bioassays. When possible, both assays were done simultaneously on the same day.
# Weighed peptide samples were routinely dissolved in 50 mM phosphate buffer, pH 7.4, to yield stock solutions, from which volumes of up to 0.2 mL were added directly to the organ bath; the concentrations of all stock solutions used were verified by quantitative amino acid analysis of aliquots. Pr-P4 and Pr-P4--NH2 were dissolved in 40 mM phosphate buffer, pH 7.4, containing 20% v/v absolute ethanol (i.e. 8 Vol of the above 50 mM phosphate buffer +2 Vol. ethanol). […] Indomethacin was dissolved in ethanol, such that the final ethanol concentration in the organ bath was at or lower than 0.01% v/v; this concentration of ethanol alone had no effect on the bioassay systems.
# [4] = average concentration ratio relative to P5 causing equal relaxation response (REC = EC TRP ÷ EC P5)
# [5] = average concentration ratio relative to P5 causing equal contractile response (REC = EC TRP ÷ EC P5)
smiles,measurement,setting,value
"O=c1c(-c2ccc(O)cc2)coc2cc(O)cc(O)c12 [genistein, reference compound]",Effect of inhibitor on contractile actions of P5--NH2 and Pr-P4,[1],similarly effective
same,Effect of inhibitor on contractile action of carbachol,[2]; RLM,unaffected
same,Inhibition of the RLM response to P5-NH2,[2]; mean ±S.E.M. for n=6,77±3 % inhibition
"CC(C)C[C@H](NC(=O)[C@H](CC(C)C)NC(=O)[C@H](Cc1ccccc1)NC(=O)[C@H](C)N)C(=O)N[C@@H](CCCNC(=N)N)C(=O)O [AP5, A42 FLLR46] (H-AFLLR-OH)",Relative potency (REC) GLM,[1],1.8
same,Relative potency (REC) RA,[3],1.7
"CC(C)C[C@H](NC(=O)[C@H](Cc1ccccc1)NC(=O)[C@H](Cc1ccccc1)NC(=O)[C@@H](N)CO)C(=O)N[C@@H](CCCNC(=N)N)C(N)=O [Ra-P5-NH2, SFFLR-amide] (H-SFFLR-NH2)",Relative potency (REC) RLM,[2],0.07
same,Agonist (contractile) activity,[2]; RLM,most potent of all of the peptides we examined
same,Agonist (relaxation) activity,[3]; RA,considerably less potent than the comparable human receptor sequences
same,Relative potency (REC) RA,[3]; [4],0.2
"CC(C)C[C@H](NC(=O)[C@H](CC(C)C)NC(=O)[C@H](Cc1ccccc1)NC(=O)[C@@H](N)CO)C(=O)N[C@@H](CCCCN)C(=O)O [PK5, S42 FLLK46] (H-SFLLK-OH)",Relative potency (REC) GLM,[1],4.5
same,Relative potency (REC) RA,[3],1.3
"CCC(=O)N[C@@H](Cc1ccccc1)C(=O)N[C@@H](CC(C)C)C(=O)N[C@@H](CC(C)C)C(=O)N[C@@H](CCCNC(=N)N)C(N)=O [Pr-P4-NH2, N-propionyl-F43 -LLR46 -amide] (Propionyl-FLLR-NH2)",Relative potency (REC) RA,[3]; [4],A.
"COc1cc2ncnc(Nc3cccc(Cl)c3)c2cc1OC [tyrphostin, Tyrphostin, reference compound]",Effect of inhibitor on contractile actions of P5--NH2 and Pr-P4,[1],blocked
same,Sensitivity of the RLM response to P5-NH2 to the inhibitor,[2],quite sensitive
"CC(C)C[C@H](NC(=O)[C@H](CC(C)C)NC(=O)[C@H](Cc1ccccc1)NC(=O)[C@@H](N)CO)C(=O)N[C@@H](CCCNC(=N)N)C(=O)N[C@@H](CC(N)=O)C(=O)N1CCC[C@H]1C(N)=O [P7-NH2, S42 FLLRNP48 -amide] (H-SFLLRNP-NH2)",Relative potency (REC) GLM,[1]; [5],0.04
same,Agonist (relaxation) activity,[3]; RA,active
same,Relative potency (REC) RA,[3]; [4],0.08
"CC(C)C[C@H](NC(=O)[C@H](Cc1ccccc1)NC(=O)[C@H](Cc1ccccc1)NC(=O)[C@@H](N)CO)C(=O)N[C@@H](CCCNC(=N)N)C(=O)N[C@@H](CC(N)=O)C(=O)N1CCC[C@H]1C(=O)O [Ra-P7, SFFLRNP] (H-SFFLRNP-OH)",Relative potency (REC) RLM,[2],0.3
same,Relative potency (REC) RA,[3]; [4],0.6
"COc1ccc2c(c1)c(CC(=O)O)c(C)n2C(=O)c1ccc(Cl)cc1 [indomethacin, reference compound]",Effect of inhibitor on contractile actions of P5--NH2 and Pr-P4,[1],blocked
same,Inhibition of the RLM response to P5-NH2,[2],40±6 % inhibition
same,Effect of inhibitor on contractile action of carbachol,[2]; RLM,unaffected
same,Effect of inhibitor on RA relaxation responses to TRPs,"[3]; RA, P5-NH2 and Pr-P4",not inhibited
"CCC(=O)N[C@@H](Cc1ccccc1)C(=O)N[C@@H](CC(C)C)C(=O)N[C@@H](CC(C)C)C(=O)N[C@@H](CCCNC(=N)N)C(=O)O [Pr-P4, N-propionyl-F43 LLR46] (Propionyl-FLLR-OH)",Relative potency (REC) GLM,[1],1
same,Relative potency (REC) RA,[3],0.1
"CC(C)C[C@H](NC(=O)[C@H](Cc1ccccc1)NC(=O)[C@H](Cc1ccccc1)NC(=O)[C@@H](N)CO)C(=O)N[C@@H](CCCNC(=N)N)C(=O)O [Ra-P5, SFFLR] (H-SFFLR-OH)",Relative potency (REC) RLM,[2],1.0
same,Relative potency (REC) RA,[3]; [4],4.4
"COC(=O)[C@H](CCCNC(=N)N)NC(=O)[C@H](CC(C)C)NC(=O)[C@H](CC(C)C)NC(=O)[C@H](Cc1ccccc1)NC(=O)[C@@H](N)CO [P5-OCH-3, S42 FLLR46 -O-Methyl]",Relative potency (REC) GLM,[1],0.1
same,Relative potency (REC) RA,[3],0.1
same,Agonist (relaxation) activity,[3]; RA,partial agonist
"CC(C)C[C@H](NC(=O)[C@H](CC(C)C)NC(=O)[C@H](Cc1ccccc1)NC(=O)[C@@H](N)CO)C(=O)N[C@@H](CCCNC(=N)N)C(=O)N[C@@H](CC(N)=O)C(=O)N1CCC[C@H]1C(=O)O [P7, S42 FLLRNP48] (H-SFLLRNP-OH)",Relative potency (REC) GLM,[1]; [5],0.4
same,Relative potency (REC) RA,[3]; [4],1.1
"CC(C)C[C@H](NC(=O)[C@H](CC(C)C)NC(=O)[C@H](Cc1ccccc1)NC(=O)[C@@H](N)CO)C(=O)N[C@@H](CCCN=C(N)N)C(=O)N[C@@H](CC(N)=O)C(=O)N1CCC[C@H]1C(=O)O [P7, S42 FLLRNP48] (H-SFLLRNP-OH)",Relative potency (REC) RLM,[2],0.3
"CC(C)C[C@H](NC(=O)[C@H](CC(C)C)NC(=O)[C@H](Cc1ccccc1)NC(=O)[C@@H](N)CO)C(=O)N[C@@H](CCCN=C(N)N)C(=O)N[C@@H](CC(N)=O)C(=O)N1CCC[C@H]1C(N)=O [P7-NH2, S42 FLLRNP48 -amide] (H-SFLLRNP-NH2)",Relative potency (REC) RLM,[2],0.1
